Measurements published in patent US8101583B2, “1,4-benzothiepin-1,1-dioxide derivatives which are substituted with fluorine, method for producing the same, drugs containing said compounds and use thereof” (Sanofi-Aventis Deutschland GmbH, priority 2006, dated 2012).

biological target: T1, human IBAT (Homo sapiens, UniProt Q12908); assay: in vitro IBAT inhibition assay: IBAT-dependent uptake of [3H]-taurocholic acid into CHO-hIBAT cells; type: cell-based; details: taurocholic acid 10 μM, 60 min at room temperature, read-out: IC-50 (human IBAT)
T1 construct: Bases 599 to 1645 correspond to the complete coding region of human IBAT; expressed in transfected cells
T1 sequence (Q12908 1-348): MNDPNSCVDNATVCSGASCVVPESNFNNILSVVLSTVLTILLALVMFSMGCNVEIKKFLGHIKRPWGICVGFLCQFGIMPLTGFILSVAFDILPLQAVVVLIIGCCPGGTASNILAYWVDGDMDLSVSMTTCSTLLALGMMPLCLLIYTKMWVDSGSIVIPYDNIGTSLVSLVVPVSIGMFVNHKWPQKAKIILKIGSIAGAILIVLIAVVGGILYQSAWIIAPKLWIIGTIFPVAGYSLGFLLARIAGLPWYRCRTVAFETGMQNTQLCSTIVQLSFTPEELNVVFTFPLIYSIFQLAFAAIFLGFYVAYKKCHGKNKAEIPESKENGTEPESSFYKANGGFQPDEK
Excerpt: Preparation and procedure for the in vitro IBAT inhibition assay:
1. Cloning of an Expression Vector for Human IBAT
The cDNA (complementary deoxyribonucleic acid) of human IBAT was cloned by standard methods of molecular biology as described for example in Molecular Cloning: A Laboratory Manual by Joseph Sambrook and David Russell, and introduced into the pcDNA1 vector from Invitrogen. […] Bases 599 to 1645 correspond to the complete coding region of human IBAT.
2. Preparation of a Recombinant Cell Line with Constitutive Expression of Human IBAT
The expression vector for human IBAT was introduced by stable transfection into CHO (chinese hamster ovary) cells. To select single cell clones, 400 μg/ml Geneticin was added to the cell culture medium (Ham's F12 medium supplemented with 10% fetal calf serum, 100 units/ml penicillin, 100 units/ml streptomycin). The functionality of the single cell clones resulting from the selection was assayed via their uptake activity for radiolabeled taurocholic acid ([^3H]-TCA). The cell clone with the highest uptake activity for [^3H]-TCA, referred to hereinafter as CHO-hIBAT, was selected for the further assays and further cultured in the presence of 400 μg/ml Geneticin.
3. Measurement of the Inhibitory Effect of the Compound of the Invention on the IBAT-Dependent Uptake of Taurocholic Acid into Cells
CHO-hIBAT cells were seeded in a concentration of 40 000 cells per well in poly-D-lysine-coated 96-well plates in cell culture medium and cultured for 24 h. The cells were then washed once with sodium-free transport assay buffer (140 mM choline chloride, 2 mM potassium chloride, 1 mM magnesium chloride, 1 mM calcium chloride, 10 mM HEPES/Tris, pH 7.5) and subsequently incubated either with sodium-free transport assay buffer as negative control or with sodium-containing transport assay buffer (140 mM sodium chloride, 2 mM potassium chloride, 1 mM magnesium chloride, 1 mM calcium chloride, 10 mM HEPES/Tris, pH 7.5) as positive control at room temperature for 30 min. At the same time, the assay wells were also incubated in the presence of the compound to be investigated in varying concentration in sodium-containing transport assay buffer at room temperature for 30 min. The test substances were appropriately diluted in transport assay buffer (40 μl/well) starting from a 10 mM stock solution in dimethyl sulfoxide. The assay was then started by adding 10 μl/well of a mixture of radiolabeled taurocholic acid ([^3H]-TCA) and unlabeled taurocholic acid. The final concentration of taurocholic acid in the assay was 10 μM. After an incubation time of 60 min at room temperature, the reaction was stopped by adding 100 μl/well sodium-free transport assay buffer (4° C.), and each well was washed three times with sodium-free transport assay buffer. Finally, 100 μl of scintillation fluid were added to each well, and the radioactivity taken up into the cells was determined in a MicroBeta Scintillation Microplate Reader from Wallac.
The half-maximum inhibitory effect of the test compound (IC50 value, inhibitory concentration 50) was determined in the following way: • 1. Determination of the value for 0% inhibition. This is the measurement in the absence of substance, measured in sodium-containing transport assay buffer. • 2. Determination of the value for 100% inhibition. This is the measurement in the absence of substance, measured in sodium-free transport assay buffer. • 3. […]

| Compound | IC50 [nM] |
| --- | --- |
| CCCC[C@]1(CC)CS(=O)(=O)c2ccc(N(C)C)cc2[C@@H](c2cccc(NC(=O)N[C@@H]3O[C@H](CO)[C@@H](F)[C@H](O)[C@H]3O)c2)[C@H]1O [Example 1] | 6.5 |
| CCCC[C@]1(CC)CS(=O)(=O)c2ccc(N(C)C)cc2[C@@H](c2cccc(NC(=O)N[C@@H]3O[C@H](COS(=O)(=O)O)[C@@H](F)[C@H](O)[C@H]3O)c2)[C@H]1O [Example 2] | 3.9 |
| CCCC[C@]1(CC)CS(=O)(=O)c2ccc(N(C)C)cc2[C@@H](c2cccc(NC(=O)N[C@@H]3O[C@H](CO)C(F)(F)[C@H](O)[C@H]3O)c2)[C@H]1O [Example 3] | 5.3 |
| CCCC[C@]1(CC)CS(=O)(=O)c2ccc(N(C)C)cc2[C@@H](c2cccc(NC(=O)N[C@@H]3O[C@H](COS(=O)(=O)O)C(F)(F)[C@H](O)[C@H]3O)c2)[C@H]1O [Example 4] | 3.6 |
| CCCC[C@]1(CC)CS(=O)(=O)c2ccc(N(C)C)cc2[C@@H](c2cccc(NC(=O)N[C@@H]3O[C@H](CS(=O)(=O)O)[C@@H](F)[C@H](O)[C@H]3O)c2)[C@H]1O [Example 5] | 5.6 |
